According to patent US20130225615A1, “2-CYCLOQUINAZOLINE DERIVATIVES AND METHODS OF USE THEREOF” (AMBIT BIOSCIENCES CORPORATION, priority 2010, published 2013):

Legend:
[1] = tested on: GM-CSFR/JAK2/STAT5 pathway in CSTF-1 cells; test: CSTF-1 cell-based reporter assay (beta-lactamase, GM-CSF stimulated); details: Homo sapiens; GM-CSF at 2 ng/mL, 4 hours; read-out: Cell Assay: CS TF-1 reporter assay IC50
Method: CSTF-1 Cell-Based Reporter Assay
CSTF-1 cells are derived from the human erythroleukemia cell line that is growth dependent on GM-CSF and has an intact GM-CSFR/JAK2/STAT5 pathway. The cell line contains stably integrated beta-lactamase reporter gene under the control of the […] (irf 1) response element recognized by the activated transcription factor STATS. csTF-1 cells (Invitrogen K1219) were washed with assay media (97% OPTIMEM/0.5% dialyzed FBS/0.1 mM NEAA/1 mM Na pyr/P/S) and seeded in the same media at 5×10^5 cell/mL in T150 flask. After 16 hour incubation, cells were seeded at 2×10^5 cell/well in 50 μl volume, into Costar, clear bottom, 96-well assay plates. Serial dilutions of compounds were added to the plates with final DMSO concentration at 0.5% and GM-CSF at 2 ng/mL and the plates were then incubated at […] and 5% CO2 for 4 hours. The plates were brought to room temperature before adding Substrate Mixture according to manufacturer's protocol (Invitrogen, Catalog #K1085). The assay plates containing the substrate mixture were incubated in the dark at room temperature for 2 hours. Blue and green fluorescence was measured with excitation at 409 nm and emission at 460 nm (for blue) and excitation at 409 nm and emission at 530 nm (for green) using Spectra Max Gemini EM.

[2] = target: T1, JAK2 (Homo sapiens, UniProt O60674); test: Competition binding assay, JAK2
T1 construct: made in house
T1 sequence (O60674 whole entry): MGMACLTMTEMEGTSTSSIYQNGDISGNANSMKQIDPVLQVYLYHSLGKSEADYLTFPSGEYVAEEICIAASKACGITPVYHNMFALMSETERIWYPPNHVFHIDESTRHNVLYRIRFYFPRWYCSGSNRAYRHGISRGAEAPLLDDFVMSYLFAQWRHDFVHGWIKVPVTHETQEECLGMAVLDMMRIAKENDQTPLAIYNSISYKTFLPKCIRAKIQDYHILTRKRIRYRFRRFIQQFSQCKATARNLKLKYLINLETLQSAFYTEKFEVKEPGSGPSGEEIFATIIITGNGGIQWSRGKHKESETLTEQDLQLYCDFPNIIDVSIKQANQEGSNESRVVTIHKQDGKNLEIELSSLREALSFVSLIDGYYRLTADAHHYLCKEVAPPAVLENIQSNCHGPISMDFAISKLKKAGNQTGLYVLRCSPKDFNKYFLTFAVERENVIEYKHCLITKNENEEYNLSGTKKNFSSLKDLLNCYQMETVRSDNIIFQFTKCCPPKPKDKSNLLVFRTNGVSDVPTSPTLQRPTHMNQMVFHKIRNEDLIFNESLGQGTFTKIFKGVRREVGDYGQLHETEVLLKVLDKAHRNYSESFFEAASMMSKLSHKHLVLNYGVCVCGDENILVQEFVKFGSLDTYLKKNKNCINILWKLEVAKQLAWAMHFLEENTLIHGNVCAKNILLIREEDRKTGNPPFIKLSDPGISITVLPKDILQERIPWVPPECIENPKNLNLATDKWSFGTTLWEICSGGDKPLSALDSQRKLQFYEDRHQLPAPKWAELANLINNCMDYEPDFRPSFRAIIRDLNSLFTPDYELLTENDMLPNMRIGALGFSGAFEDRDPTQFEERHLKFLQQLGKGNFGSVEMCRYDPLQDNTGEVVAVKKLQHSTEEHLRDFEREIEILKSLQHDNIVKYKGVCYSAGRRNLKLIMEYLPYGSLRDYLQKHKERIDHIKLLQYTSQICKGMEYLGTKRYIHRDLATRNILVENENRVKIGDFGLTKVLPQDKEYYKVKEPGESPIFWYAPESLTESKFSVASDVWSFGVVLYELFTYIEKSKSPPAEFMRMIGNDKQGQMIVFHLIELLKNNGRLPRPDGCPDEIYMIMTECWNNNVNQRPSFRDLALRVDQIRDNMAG
Source text: (§1) Determination of Binding Constants (Kd) of the Compounds Against JAK Kinases
(§2) Competition binding assays used herein were developed, validated and performed as described in Fabian et al., Nature Biotechnology 2005, 23,329-336. Kinases were produced as fusions to T7 phage (See, Fabian et al. or WO04/015142) or alternatively, the kinases were expressed in HEK-293 cells and subsequently tagged with DNA for PCR detection (See, WO08/005,310). For the binding assays, streptavidin-coated magnetic beads were treated with biotinylated affinity ligands for 30 min at rt to generate affinity resins. The liganded beads were blocked with excess biotin and washed with blocking buffer (SeaBlock (Pierce), 1% BSA, 0.05% Tween 20, 1 mM DTT) to remove unbound ligand and to reduce non-specific binding. Binding reactions were assembled by combining kinase, liganded affinity beads, and test compounds in 1× binding buffer (20% SeaBlock, 0.17×PBS, 0.05% Tween 20, 6 mM DTT). Test compounds were prepared as 100× stocks in DMSO and rapidly diluted into the aqueous environment. DMSO was added to control assays lacking a test compound. Primary screen interactions were performed in polypropylene 384-well plates in a final volume of 34 μL, while Kd determinations were performed in polystyrene 96-well plates in a final volume of 135 μL. The assay plates were incubated at room temperature with shaking for 1 hour, long enough for binding reactions to reach equilibrium, and the affinity beads were washed extensively with wash buffer (1×PBS, 0.05% Tween 20) to remove unbound protein. The beads were then resuspended in elution buffer (1×PBS, 0.05% Tween 20, 2 μM non-biotinylated affinity ligand) and incubated at room temperature with shaking for 30 min. The kinase concentration in the eluates was measured by quantitative PCR. Each kinase was tested individually against each compound. Kds were determined using eleven serial threefold dilutions. A selectivity score, which is a quantitative measure of selectivity of a compound against a panel of enzymes, may be calculated for a compound by dividing the number of enzymes for which a compound meets a set criteria, (for example, a binding constant of 100 nM or less), by the total number of enzymes tested.

[3] = target: T2, JAK3 (Homo sapiens, UniProt P52333); test: Competition binding assay, JAK3
T2 construct: made in house
T2 sequence (P52333 1-1124): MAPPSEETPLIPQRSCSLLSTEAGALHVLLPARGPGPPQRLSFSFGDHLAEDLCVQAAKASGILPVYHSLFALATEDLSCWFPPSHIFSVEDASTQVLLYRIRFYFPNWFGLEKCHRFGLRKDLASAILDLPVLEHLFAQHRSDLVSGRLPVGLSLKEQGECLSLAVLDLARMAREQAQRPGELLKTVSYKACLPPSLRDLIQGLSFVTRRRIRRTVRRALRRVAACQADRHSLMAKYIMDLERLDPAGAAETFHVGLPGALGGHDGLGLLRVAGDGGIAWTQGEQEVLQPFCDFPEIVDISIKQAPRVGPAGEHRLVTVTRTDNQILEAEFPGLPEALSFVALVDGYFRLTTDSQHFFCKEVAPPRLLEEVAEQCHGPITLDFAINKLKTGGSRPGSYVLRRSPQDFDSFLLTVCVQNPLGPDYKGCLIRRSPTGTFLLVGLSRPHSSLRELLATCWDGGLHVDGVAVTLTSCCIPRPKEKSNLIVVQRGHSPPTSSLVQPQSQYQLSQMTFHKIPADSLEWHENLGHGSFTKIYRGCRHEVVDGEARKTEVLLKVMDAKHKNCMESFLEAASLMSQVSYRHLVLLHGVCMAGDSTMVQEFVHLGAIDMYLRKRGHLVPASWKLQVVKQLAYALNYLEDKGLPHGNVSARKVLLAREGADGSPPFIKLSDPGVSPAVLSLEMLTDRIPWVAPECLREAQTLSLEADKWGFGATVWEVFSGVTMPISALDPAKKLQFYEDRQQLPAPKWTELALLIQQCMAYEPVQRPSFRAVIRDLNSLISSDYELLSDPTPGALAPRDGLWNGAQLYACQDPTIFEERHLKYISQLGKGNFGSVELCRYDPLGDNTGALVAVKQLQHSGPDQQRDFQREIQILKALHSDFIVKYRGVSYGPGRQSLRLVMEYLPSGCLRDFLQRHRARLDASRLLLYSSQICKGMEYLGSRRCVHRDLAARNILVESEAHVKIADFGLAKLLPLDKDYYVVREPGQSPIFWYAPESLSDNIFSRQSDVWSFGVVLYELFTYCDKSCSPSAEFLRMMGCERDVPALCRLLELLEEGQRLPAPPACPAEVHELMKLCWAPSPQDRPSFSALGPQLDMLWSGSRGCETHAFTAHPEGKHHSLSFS
Source text: as §1, §2

[4] = target: T3, TYK2 (Homo sapiens, UniProt P29597); test: Competition binding assay, TYK2
T3 construct: made in house
T3 sequence (P29597 whole entry): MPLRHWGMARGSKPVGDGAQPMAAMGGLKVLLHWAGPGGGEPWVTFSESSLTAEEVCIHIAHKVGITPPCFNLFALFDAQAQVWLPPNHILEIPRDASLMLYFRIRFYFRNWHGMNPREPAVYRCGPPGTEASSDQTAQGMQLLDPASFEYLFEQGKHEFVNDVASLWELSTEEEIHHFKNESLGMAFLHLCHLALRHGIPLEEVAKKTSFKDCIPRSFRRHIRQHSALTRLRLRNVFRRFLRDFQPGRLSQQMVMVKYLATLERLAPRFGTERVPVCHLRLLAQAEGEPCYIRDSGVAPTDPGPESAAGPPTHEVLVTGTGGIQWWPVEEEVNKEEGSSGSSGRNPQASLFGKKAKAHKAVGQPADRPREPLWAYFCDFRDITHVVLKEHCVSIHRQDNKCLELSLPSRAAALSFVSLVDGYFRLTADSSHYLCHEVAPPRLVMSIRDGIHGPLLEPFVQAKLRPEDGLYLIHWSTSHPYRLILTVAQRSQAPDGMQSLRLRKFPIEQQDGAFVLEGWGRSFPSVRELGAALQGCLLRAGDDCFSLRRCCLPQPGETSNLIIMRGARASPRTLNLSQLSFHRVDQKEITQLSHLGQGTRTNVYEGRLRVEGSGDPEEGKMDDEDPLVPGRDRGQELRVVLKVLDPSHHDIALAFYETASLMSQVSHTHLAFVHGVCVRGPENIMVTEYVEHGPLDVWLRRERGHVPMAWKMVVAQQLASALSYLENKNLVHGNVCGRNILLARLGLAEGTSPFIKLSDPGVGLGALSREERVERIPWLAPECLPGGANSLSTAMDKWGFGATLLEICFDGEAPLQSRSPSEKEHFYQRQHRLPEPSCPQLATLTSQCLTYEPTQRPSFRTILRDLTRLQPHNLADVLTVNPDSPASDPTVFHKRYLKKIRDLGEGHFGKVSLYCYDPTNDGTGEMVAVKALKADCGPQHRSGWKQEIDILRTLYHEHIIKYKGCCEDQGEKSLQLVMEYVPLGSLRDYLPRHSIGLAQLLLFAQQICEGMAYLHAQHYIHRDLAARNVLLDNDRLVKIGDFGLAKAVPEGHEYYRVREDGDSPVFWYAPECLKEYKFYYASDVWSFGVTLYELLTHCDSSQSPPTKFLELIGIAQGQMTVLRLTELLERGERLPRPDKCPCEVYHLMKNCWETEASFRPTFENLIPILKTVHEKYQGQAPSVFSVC
Source text: as §1, §2

[5] = tested on: panel of distinct kinases excluding mutant variants, typically 359 or 386 kinases; test: Kinase selectivity score S10 from binding panel; details: compound at 10 μM; fraction of kinases with inhibition of 90% or greater
Method: as §2

Cc1cc(Nc2nc([C@]3(c4ccc(F)cc4)C[C@@H](O)C3)nc3ccccc23)n[nH]1 [Example 3, (1R,3R)-3-(4-fluorophenyl)-3-(4-((5-methyl-1H-pyrazol-3-yl)amino)quinazolin-2-yl)cyclobutanol]
IC50 [1]: 100 to 500 nM
Kd [2]: ≤ 1 nM
Kd [3]: 10 to 100 nM
Kd [4]: 10 to 100 nM
S-Score: S(10) at 10 μM [5]: A (A≦0.3)

Cc1cc(Nc2nc([C@]3(c4ccc(F)cc4)C[C@H](O)C3)nc3ccccc23)n[nH]1 [Example 1, (1S,3S)-3-(4-fluorophenyl)-3-(4-(5-methyl-1H-pyrazol-3-ylamino)quinazolin-2-yl)cyclobutanol]
IC50 [1]: 100 to 500 nM
Kd [2]: ≤ 1 nM
Kd [3]: 10 to 100 nM
Kd [4]: 10 to 100 nM
S-Score: S(10) at 10 μM [5]: A (A≦0.3)

Cc1cc(Nc2nc(C3(c4ccc(F)cc4)CCOCC3)nc3ccccc23)n[nH]1 [Example 4, 2-(4-(4-fluorophenyl)tetrahydro-2H-pyran-4-yl)-N-(5-methyl-1H-pyrazol-3-yl)quinazolin-4-amine]
IC50 [1]: 100 to 500 nM
Kd [2]: 1 to 10 nM
Kd [3]: 10 to 100 nM
Kd [4]: ≤ 10 nM
S-Score: S(10) at 10 μM [5]: A (A≦0.3)

Cc1cc(Nc2nc([C@]3(c4ccc(F)cc4)C[C@@H](F)C3)nc3ccccc23)n[nH]1 [Example 2, 2-((1R,3R)-3-fluoro-1-(4-fluorophenyl)cyclobutyl)-N-(5-methyl-1H-pyrazol-3-yl)quinazolin-4-amine]
IC50 [1]: > 500 nM
Kd [2]: 1 to 10 nM
Kd [3]: 10 to 100 nM
Kd [4]: 10 to 100 nM
S-Score: S(10) at 10 μM [5]: A (A≦0.3)
